The values that follow are results of earlier work, collected in patent publication US10463045B2, “Agrochemical composition” (Nippon Soda Co., Ltd., priority 2015, dated 2019).

Converted amounts (≈) assume the structure as drawn. Read-outs that look alike come from different tables or passages of the source.

Turning to “5-butyl-2-dimethylamino-6-methylpyridin-4-ol [dimethirimol]”, under “25° C.”, the solubility in water is reported as 1,200 mg/l.

On to `ClC=CCCl` [D-D, 1,3-dichloropropene], for which the solubility in water runs as follows: (E form, 20° C.) 2,520 mg/l; (Z form, 20° C.) 2,450 mg/l.

Regarding `CC(C)N1C(=O)c2ccccc2NS1(=O)=O` [bentazon, 3-isopropyl-1H-2,1,3-benzothiadiazin-4(3H)-one-2,2-dioxide], the solubility in water (20° C.) is 570 mg/L (≈ 2370 µM).

Take `CN(CC[C@H](N)CC(=O)N[C@H]1C=C[C@H](n2ccc(N)nc2=O)O[C@@H]1C(=O)O)C(=N)N` [blasticidin S, 1-(4-amino-1,2-dihydro-2-oxopyrimidin-1-yl)-4-[(S)-3-amino-5-(1-methyl-guanidino)valeramido]-1,2,3,4,-tetradioxy-β-D-erythrohexy-2-enopyranuronic acid]: where the note is “20° C.”, the solubility in water was 30,000 mg/l.

On to `CC(C1CC1)C(O)(Cn1cncn1)c1ccc(Cl)cc1` (stereo not drawn) [cyproconazole, 2-(4-chlorophenyl)-3-cyclopropyl-1-(1H-1,2,4-triazol-1-yl) butan-2-ol], for which the solubility in water (pH 6.9) was 100 mg/L (≈ 343 µM).

In the case of `CN1CSC(=S)N(C)C1` [dazomet, 3,5-dimethyl-tetrahydro-2H-1,3,5-thiadiazine-2-thione], the solubility in water (20° C.) is on record as 3,500 mg/l.

`N#CCNC(=O)c1cnccc1C(F)(F)F` [flonicamid]: the solubility in water (20° C.) is 5,200 mg/l.

Consider `CNC(=O)ON=C(C)SC` [methomyl, S-methyl-N-(methylcarbamoyloxy) thioacetimidate], for which the solubility in water (20° C., pH 7) was 46,000 mg/l.
